Experimental data as given in patent US20130172407A1, “Inhibition of Cancer Cell Proliferation Using Oleoylethanolamide” (China Medical University, priority 2011, published 2013).

Columns and labels:
Format in all cases: cell-based, Human
SW-480 cells = assay: MTT cell viability analysis, SW-480 cells; conditions: 24 hours, OEA 50, 100, 200 μM and lycopene 2, 5 μM compared to control group, synergy groups (200 μM OEA + 2 or 5 μM lycopene) compared to OEA group 3 and lycopene groups 1 and 2, FIG. 3
Method: (§1) HT-29 cells were cultured in a 75-cm^2 flask containing McCoy's medium (Invitrogen Inc., Carlsbad, Calif., USA) supplemented with 10% Fetal Bovine Serum (FBS), 2 mM glutamine and 1.5 g/L sodium bicarbonate. The remaining cells were cultured in a 75-cm^2 flask containing RPMI 1640 medium (Hyclone, Grand Island, N.Y., USA) supplemented with 10% Fetal Bovine Serum (FBS), 2 mM glutamine and 1.5 g/L sodium bicarbonate. These cells were cultured in an incubator with culture conditions set at 37° C. and 5% CO2. […]
(§2) • {3-[4,5-Dimethylthiazol-2-yl]-2,5-diphenyltetrazolium bromide} (MTT, 0.5 mg/mL, 200 μL) was added to the cell culture of each group, followed by incubation in an incubator (37° C., 5% CO2) for 2 hours. […] The absorbance at 570 nm (OD570) for each well was detected using a microplate reader (Tecan Inc., Mannedorf, Switzerland).
(§3) Cell viability percentage (%) was calculated by substituting the detected absorbance (OD570) to the following formula (1):
(§4) A=(B/C)×100 Formula (1): • wherein: • A=cell viability percentage (%) • B=the detected OD570 absorbance of each group • C=the detected OD570 absorbance of control group

p-NF-κB p65 = assay: Western Blotting analysis of nuclear protein, p-NF-κB p65 expression in HT-29 cells; conditions: HT-29 nuclear protein; OEA 200 μM, lycopene 2 and 5 μM compared to control group; synergy groups compared to OEA group 3 and lycopene groups 1 and 2; FIG. 10
Method: (§5) In order to detect the protein expression of HT-29 cells, the HT-29 cell culture treated with different solutions for use in the instant experiment was obtained substantially according to “B. Treatment of various cancer cell lines with OEA solutions, lycopene solutions and combined solutions” in the above Example 2. The difference was that the cells of each group were cultured in a culture dish having a diameter of 10 cm. Experimental groups were added with different solutions according to those shown in Table 3 and the amount added was 10 mL.
(§6) Then, the HT-29 cell cultures of the control group, OEA group 3, lycopene groups 1 and 2 and synergy groups 1 and 2 were washed with PBS twice followed by adding 75 μL lysis buffer (containing PBS, 1% Ipegal CA-630 (Sigma, St. Louis, Mo.), 0.5% sodium deoxycholate, 0.1% SDS, 100 μM phenylmethylsulfonyl fluoride, 20 μg/mL aprotinin, 1 mM PMSF and 3 μM sodium orthovanadate) and uniformly mixing. The resultant cell mixtures were subjected to nuclear protein extraction using NE-PER® Nuclear and Cytoplasmic Extraction Reagents (Thermo Scientific, Cat. No. 78833) according to the manufacturer's operation guide, thereby obtaining nuclear protein samples. […]

A549 cells = assay: MTT cell viability analysis, A549 cells; conditions: 24 hours, OEA 50, 100, 200 μM and lycopene 2, 5 μM compared to control group, synergy groups (200 μM OEA + 2 or 5 μM lycopene) compared to OEA group 3 and lycopene groups 1 and 2, FIG. 4
Method: as §1, §2, §3, §4

AGS cells = assay: MTT cell viability analysis, AGS cells; conditions: 24 hours, OEA 50, 100, 200 μM and lycopene 2, 5 μM compared to control group, synergy groups (200 μM OEA + 2 or 5 μM lycopene) compared to OEA group 3 and lycopene groups 1 and 2, FIG. 8
Method: as §1, §2, §3, §4

HT-29 cells [1] = assay: FITC Annexin V / PI flow cytometry, cell death (apoptosis); conditions: FITC Annexin V and PI positive, OEA 200 μM and lycopene 5 μM compared to control group, synergy groups compared to OEA group 3 and lycopene group 2, FIG. 11
Method: In order to further investigate the usefulness of OEA and its combination with lycopene in inducing cell apoptosis of human colorectal cancer cell line HT-29, HT-29 cell cultures of control group, OEA group 3, lycopene groups 1 and 2 and synergy groups 1 and 2 obtained according to the above Item B in Example 2 were used for subsequent experiments.
First, the cell culture of each group was collected and washed with cold PBS twice followed by centrifugation at 300 g for 5 minutes. The supernatant was removed and 1× Annexin V Binding Buffer (BD Pharmingen™) was added to sufficiently re-suspend the cell pellet thereby obtaining a cell suspension having a cell concentration of 1×10^5 cells/mL. […]
Then, the stained cells were analyzed using BD FACSAria™ flow cytometry, wherein cells stained with FITC Annexin V and PI, i.e., FITC Annexin V positive and PI positive, represent cells that were induced with apoptosis and died, while cells that could not be stained with FITC Annexin V and PI, i.e., FITC Annexin V negative and PI negative, represent viable cells. The number of cells stained with FITC Annexin V and PI was calculated using BD FACSDiVa™ software.
The cell death percentage (%) of each group was calculated by substituting the detected cell number to the following formula (2): […]

cyclin D1 = assay: Western Blotting analysis of nuclear protein, cyclin D1 expression in HT-29 cells; conditions: HT-29 nuclear protein; OEA 200 μM, lycopene 2 and 5 μM compared to control group; synergy groups compared to OEA group 3 and lycopene groups 1 and 2; FIG. 10
Method: as §5, §6

HT-29 cells [2] = assay: MTT cell viability analysis, HT-29 cells; conditions: 24 hours, OEA 50, 100, 200 μM and lycopene 2, 5 μM compared to control group, synergy groups (200 μM OEA + 2 or 5 μM lycopene) compared to OEA group 3 and lycopene groups 1 and 2, FIG. 1
Method: as §1, §2, §3, §4

CAL 27 cells = assay: MTT cell viability analysis, CAL 27 cells; conditions: 24 hours, OEA 50, 100, 200 μM and lycopene 2, 5 μM compared to control group, synergy groups (200 μM OEA + 2 or 5 μM lycopene) compared to OEA group 3 and lycopene groups 1 and 2, FIG. 7
Method: as §1, §2, §3, §4

HT-29 cells [3] = assay: Flow cytometry cell cycle analysis (PI staining, Sub-G1 phase); conditions: 24 hours, OEA 50, 100, 200 μM, lycopene 2, 5 μM, synergy groups (200 μM OEA + 2 or 5 μM lycopene) compared to OEA groups 1-3 and lycopene groups 1 and 2, FIG. 9
Method: In order to understand the effect of OEA and its combination with lycopene on the cell cycle and proliferation of human colorectal cancer cell line HT-29, HT-29 cell culture treated with different solutions obtained from Item B of Example 2 was used for the following experiments.
Each group of the HT-29 cell culture obtained from Item B of Example 2 was washed with PBS twice followed by fixing the cells with 70% (w/v) cold ethanol for 1 hour. Then, the obtained fixed cells were washed with cold PBS followed by centrifugation at 300 g for 5 minutes. […]
Subsequently, the obtained dyed cells were subjected to cell cycle analysis using BD FACSCanto™ flow cytometer (BD Biosciences, Cat. No. 338960), and the DNA content of 1×10^4 cells was analyzed in each analysis. The cells would emit fluorescence when excited by laser beam of argon ion at 488 nm. Cell cycle profile was analyzed from DNA content histograms using BD FACSDiVa™ software (Becton Dickinson, Cat. No. 643629). […] The percentage of the cells in Sub-G1 phase was analyzed using ModFit LT software.
The obtained experimental data was analyzed according to the method described in “Statistical Analysis” in the section of “General experimental procedure”.

Huh-7 cells = assay: MTT cell viability analysis, Huh-7 cells; conditions: 24 hours, OEA 50, 100, 200 μM and lycopene 2, 5 μM compared to control group, synergy groups (200 μM OEA + 2 or 5 μM lycopene) compared to OEA group 3 and lycopene groups 1 and 2, FIG. 6
Method: as §1, §2, §3, §4

HCT 116 cells = assay: MTT cell viability analysis, HCT 116 cells; conditions: 24 hours, OEA 50, 100, 200 μM and lycopene 2, 5 μM compared to control group, synergy groups (200 μM OEA + 2 or 5 μM lycopene) compared to OEA group 3 and lycopene groups 1 and 2, FIG. 2
Method: as §1, §2, §3, §4

MDA-MB-231 cells = assay: MTT cell viability analysis, MDA-MB-231 cells; conditions: 24 hours, OEA 50, 100, 200 μM and lycopene 2, 5 μM compared to control group, synergy groups (200 μM OEA + 2 or 5 μM lycopene) compared to OEA group 3 and lycopene groups 1 and 2, FIG. 5
Method: as §1, §2, §3, §4

SMILES: CC(C)=CCC/C(C)=C/C=C/C(C)=C/C=C/C(C)=C/C=C/C=C(C)/C=C/C=C(C)/C=C/C=C(\C)CCC=C(C)C [lycopene]
- cell viability percentage (SW-480 cells): reduced
- amount of p-NF-κB p65 expression (p-NF-κB p65): reduced
- cell viability percentage (A549 cells): reduced
- cell viability percentage (AGS cells): reduced
- cell death percentage (HT-29 cells [1]): elevated
- amount of cyclin D1 expression (cyclin D1): reduced
- cell viability percentage (HT-29 cells [2]): reduced
- cell viability percentage (CAL 27 cells): reduced
- percentage of HT-29 cells in Sub-G1 phase (HT-29 cells [3]): promote HT-29 cells to be in Sub-G1 phase
- cell viability percentage (Huh-7 cells): reduced
- cell viability percentage (HCT 116 cells): reduced
- cell viability percentage (MDA-MB-231 cells): reduced

SMILES: CCCCCCCC/C=C\CCCCCCCC(=O)NCCO [OEA, oleoylethanolamide]
- cell viability percentage (SW-480 cells): reduced
- amount of p-NF-κB p65 expression (p-NF-κB p65): reduced
- cell viability percentage (A549 cells): reduced
- cell viability percentage (AGS cells): reduced
- cell death percentage (HT-29 cells [1]): elevated
- amount of cyclin D1 expression (cyclin D1): reduced
- cell viability percentage (HT-29 cells [2]): reduced
- cell viability percentage (CAL 27 cells): reduced
- percentage of HT-29 cells in Sub-G1 phase (HT-29 cells [3]): promote HT-29 cells to be in Sub-G1 phase
- cell viability percentage (Huh-7 cells): reduced
- cell viability percentage (HCT 116 cells): reduced
- cell viability percentage (MDA-MB-231 cells): reduced
